Reference: US20240109918A1, “HETEROCYCLIC COMPOUNDS AND USES THEREOF” (Kumquat Biosciences Inc., priority 2022, published 2024)

Experiments:
[1] = target: T1, KRASwt (Homo sapiens, UniProt P01116); assay: Bio-Biochem-PPI-HTRF Ras-SOS1 interaction assay (KRAS wt); format: biochemical; details: 5 nM
T1 construct: made in house; host or cells: E. coli BL21 (DE3)
How it was run: (§1)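 Inhibition of His-hSOS1 binding to GST-tagged wild-type or G12D K-Ras is read as HTRF ratio (665/620 nm) following incubation of about 10 minutes or longer, and IC50 values are fitted from duplicate six-point titrations.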

[2] = target: T2, KRASG12D (Homo sapiens, UniProt P01116, G12D); assay: Bio-Biochem-PPI-HTRF Ras-SOS1 interaction assay (KRAS G12D); format: biochemical; details: 5 nM
T2 construct: made in house; host or cells: E. coli BL21 (DE3)
T2 sequence (P01116 1-188 isoform P01116-2 G12D): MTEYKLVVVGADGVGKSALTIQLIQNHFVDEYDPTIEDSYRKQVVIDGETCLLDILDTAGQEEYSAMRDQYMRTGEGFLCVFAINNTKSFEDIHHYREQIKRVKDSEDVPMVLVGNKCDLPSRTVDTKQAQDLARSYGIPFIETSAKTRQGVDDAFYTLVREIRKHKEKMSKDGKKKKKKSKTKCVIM
How it was run: as §1

T1 sequence (P01116 1-188 isoform P01116-2): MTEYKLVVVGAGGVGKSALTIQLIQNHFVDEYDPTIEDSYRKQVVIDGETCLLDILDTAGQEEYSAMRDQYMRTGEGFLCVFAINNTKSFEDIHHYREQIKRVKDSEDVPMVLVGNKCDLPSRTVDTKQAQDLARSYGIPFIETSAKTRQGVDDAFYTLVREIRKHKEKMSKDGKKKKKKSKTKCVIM

IC50 [1] [µM]	IC50 [2] [µM]	SMILES
< 5	< 5	CC(=O)N1CC2(CCCN(c3nc(OC[C@@]45CCCN4C[C@H](F)C5)nc4c(F)c(-c5ccc(F)c6sc(N)c(C#N)c56)c(Cl)cc34)C2)C1 [compound 169, 4-(4-(2-acetyl-2,6-diazaspiro[3.5]nonan-6-yl)-6-chloro-8-fluoro-2-(((2R,7aS)-2-fluorotetrahydro-1H-pyrrolizin-7a(5H)-yl)methoxy)quinazolin-7-yl)-2-amino-7-fluorobenzo[b]thiophene-3-carbonitrile]
< 5	< 5	N#Cc1c(N)sc2c(F)ccc(-c3c(Cl)cc4c(N5CCCCC6(CN(C(=O)CC7CCC7)C6)C5)nc(OC[C@@]56CCCN5C[C@H](F)C6)nc4c3F)c12 [compound 320, 2-amino-4-(6-chloro-4-(2-(2-cyclobutylacetyl)-2,6-diazaspiro[3.6]decan-6-yl)-8-fluoro-2-(((2R,7aS)-2-fluorotetrahydro-1H-pyrrolizin-7a(5H)-yl)methoxy)quinazolin-7-yl)-7-fluorobenzo[b] thiophene-3-carbonitrile]
< 5	< 5	N#Cc1c(N)sc2c(F)ccc(-c3c(Cl)cc4c(N5CCCCC6(CN(C(=O)C(F)Cl)C6)C5)nc(OC[C@@]56CCCN5C[C@H](F)C6)nc4c3F)c12 (stereo partly drawn) [compound 251, 2-amino-4-(6-chloro-4-(2-(2-chloro-2-fluoroacetyl)-2,6-diazaspiro [3.6]decan-6-yl)-8-fluoro-2-(((2R,7aS)-2-fluorotetrahydro-1H-pyrrolizin-7a(5H)-yl)methoxy)quinazolin-7-yl)-7-fluorobenzo[b]thiophene-3-carbonitrile]
< 5	< 5	N#Cc1c(N)sc2c(F)ccc(-c3c(Cl)cc4c(N5CCCCC6(CN(C(=O)[C@@H]7C[C@H]7C#N)C6)C5)nc(OC[C@@]56CCCN5C[C@H](F)C6)nc4c3F)c12 [compound 263, 2-amino-4-(6-chloro-4-(2-((1R,2R)-2-cyanocyclopropane-1-carbonyl)-2,6-diazaspiro[3.6]decan-6-yl)-8-fluoro-2-(((2R,7aS)-2-fluorotetrahydro-1H-pyrrolizin-7a(5H)-yl)methoxy)quinazolin-7-yl)-7-fluorobenzo[b]thiophene-3-carbonitrile]
< 5	< 5	N#Cc1c(N)sc2c(F)ccc(-c3c(Cl)cc4c(N5CCC(F)(F)CC6(CN(C(=O)[C@@H]7CC7(F)F)C6)C5)nc(OC[C@@]56CCCN5C[C@H](F)C6)nc4c3F)c12 [compound 290, 2-amino-4-(6-chloro-4-(2-((S)-2,2-difluorocyclopropane-1-carbonyl)-9,9-difluoro-2,6-diazaspiro [3.6]decan-6-yl)-8-fluoro-2-(((2R,7aS)-2-fluorotetrahydro-1H-pyrrolizin-7a(5H)-yl)methoxy)quinazolin-7-yl)-7-fluorobenzo[b]thiophene-3-carbonitrile]
< 5	< 5	COc1nc(N2CCCCC3(CN(C(C)=O)C3)C2)c2cc(Cl)c(-c3ccc(F)c4sc(N)c(C#N)c34)c(F)c2n1 [compound 256, 4-(4-(2-acetyl-2,6-diazaspiro[3.6]decan-6-yl)-6-chloro-8-fluoro-2-methoxyquinazolin-7-yl)-2-amino-7-fluorobenzo[b]thiophene-3-carbonitrile]
< 5	< 5	N#Cc1c(N)sc2c(F)ccc(-c3c(Cl)cc4c(N5CCCCC6(CN(C(=O)CC7CCOCC7)C6)C5)nc(OC[C@@]56CCCN5C[C@H](F)C6)nc4c3F)c12 [compound 204, 2-amino-4-(6-chloro-8-fluoro-2-(((2R,7aS)-2-fluorotetrahydro-1H-pyrrolizin-7a(5H)-yl)methoxy)-4-(2-(2-(tetrahydro-2H-pyran-4-yl)acetyl)-2,6-diazaspiro[3.6]decan-6-yl)quinazolin-7-yl)-7-fluorobenzo[b]thiophene-3-carbonitrile]
< 5	< 5	N#CN1CC2(C1)CN(c1nc(OC[C@@]34CCCN3C[C@H](F)C4)nc3c(F)c(-c4ccc(F)c5sc(N)nc45)c(Cl)cc13)CCO2 [compound 187, 8-(7-(2-amino-7-fluorobenzo[d]thiazol-4-yl)-6-chloro-8-fluoro-2-(((2R,7aS)-2-fluorotetrahydro-1H-pyrrolizin-7a(5H)-yl)methoxy)quinazolin-4-yl)-5-oxa-2,8-diazaspiro[3.5]nonane-2-carbonitrile]
< 5	< 5	N#Cc1c(N)sc2c(F)ccc(-c3c(Cl)cc4c(N5CCCCC6(CN(C(=O)[C@H]7C[C@H]7F)C6)C5)nc(OC[C@@]56CCCN5C[C@H](F)C6)nc4c3F)c12 [compound 193, 2-amino-4-(6-chloro-8-fluoro-4-(2-((1R,2R)-2-fluorocyclopropane-1-carbonyl)-2,6-diazaspiro[3.6]decan-6-yl)-2-(((2R,7aS)-2-fluorotetrahydro-1H-pyrrolizin-7a(5H)-yl)methoxy)quinazolin-7-yl)-7-fluorobenzo[b]thiophene-3-carbonitrile]
< 5	< 5	N#Cc1c(N)sc2c(F)ccc(-c3c(Cl)cc4c(N5CCC(CO)CC6(CNC6)C5)nc(OC[C@@]56CCCN5C[C@H](F)C6)nc4c3F)c12 (stereo partly drawn) [compound 214, 2-amino-4-(6-chloro-8-fluoro-2-(((2R,7aS)-2-fluorotetrahydro-1H-pyrrolizin-7a(5H)-yl)methoxy)-4-(9-(hydroxymethyl)-2,6-diazaspiro[3.6]decan-6-yl)quinazolin-7-yl)-7-fluorobenzo[b]thiophene-3-carbonitrile]
< 5	< 5	N#Cc1c(N)sc2c(F)ccc(-c3c(Cl)cc4c(N5CCOC6(CN(C(=O)[C@H]7CC7(F)F)C6)C5)nc(OC[C@@]56CCCN5C[C@H](F)C6)nc4c3F)c12 (single isomer, unassigned) [compound 176]
< 5	< 5	N#Cc1c(N)sc2c(F)ccc(-c3c(F)c4nc(OC[C@@]56CCCN5C[C@H](F)C6)nc(N5CCCCC6(CNC6)C5)c4c(=O)n3C3CC3)c12 [compound 198, 2-amino-4-(6-cyclopropyl-8-fluoro-2-(((2R,7aS)-2-fluorotetrahydro-1H-pyrrolizin-7a(5H)-yl)methoxy)-5-oxo-4-(2,6-diazaspiro[3.6]decan-6-yl)-5,6-dihydropyrido[4,3-d]pyrimidin-7-yl)-7-fluorobenzo[b]thiophene-3-carbonitrile]
< 5	< 5	N#Cc1c(N)sc2c(F)ccc(-c3c(Cl)cc4c(N5CCCCC6(CN(C(=O)N7CCC(F)(F)C7)C6)C5)nc(OC[C@@]56CCCN5C[C@H](F)C6)nc4c3F)c12 [compound 292, 2-amino-4-(6-chloro-4-(2-(3,3-difluoropyrrolidine-1-carbonyl)-2,6-diazaspiro[3.6]decan-6-yl)-8-fluoro-2-(((2R,7aS)-2-fluorotetrahydro-1H-pyrrolizin-7a(5H)-yl)methoxy)quinazolin-7-yl)-7-fluorobenzo[b]thiophene-3-carbonitrile]
< 5	< 5	N#Cc1c(N)sc2c(F)ccc(-c3c(Cl)cc4c(N5CCCCC6(CN(C(=O)C(F)F)C6)C5)nc(OC[C@@]56CCCN5C[C@H](F)C6)nc4c3F)c12 [compound 317, 2-amino-4-(6-chloro-4-(2-(2,2-difluoroacetyl)-2,6-diazaspiro[3.6]decan-6-yl)-8-fluoro-2-(((2R,7aS)-2-fluorotetrahydro-1H-pyrrolizin-7a(5H)-yl)methoxy)quinazolin-7-yl)-7-fluorobenzo[b]thiophene-3-carbonitrile]
< 5	< 5	C[C@H](O)C(=O)N1CC2(CCCCN(c3nc(OC[C@@]45CCCN4C[C@H](F)C5)nc4c(F)c(-c5ccc(F)c6sc(N)c(C#N)c56)c(Cl)cc34)C2)C1 [compound 318, 2-amino-4-(6-chloro-8-fluoro-2-(((2R,7aS)-2-fluorotetrahydro-1H-pyrrolizin-7a(5H)-yl)methoxy)-4-(2-((S)-2-hydroxypropanoyl)-2,6-diazaspiro[3.6]decan-6-yl)quinazolin-7-yl)-7-fluorobenzo[b]thiophene-3-carbonitrile]
< 5	< 5	N#Cc1c(N)sc2c(F)ccc(-c3c(Cl)cc4c(N5CCCCC6(CN(C(=O)C7CCOCC7)C6)C5)nc(OC[C@@]56CCCN5C[C@H](F)C6)nc4c3F)c12 [compound 300, 2-amino-4-(6-chloro-8-fluoro-2-(((2R,7aS)-2-fluorotetrahydro-1H-pyrrolizin-7a(5H)-yl)methoxy)-4-(2-(tetrahydro-2H-pyran-4-carbonyl)-2,6-diazaspiro[3.6]decan-6-yl)quinazolin-7-yl)-7-fluorobenzo[b]thiophene-3-carbonitrile]
< 5	< 5	C#Cc1c(F)ccc2cc(O)cc(-c3ncc4c(N5CCCCC6(CN(C(=O)[C@H]7CC7(F)F)C6)C5)nc(OC[C@@]56CCCN5C[C@H](F)C6)nc4c3F)c12 [compound 215, ((R)-2,2-difluorocyclopropyl) (6-(7-(8-ethynyl-7-fluoro-3-hydroxynaphthalen-1-yl)-8-fluoro-2-(((2R,7aS)-2-fluorotetrahydro-1H-pyrrolizin-7a(5H)-yl)methoxy)pyrido[4,3-d]pyrimidin-4-yl)-2,6-diazaspiro[3.6]decan-2-yl)methanone]
< 5	< 5	CC(F)(F)C(=O)N1CC2(CCCCN(c3nc(OC[C@@]45CCCN4C[C@H](F)C5)nc4c(F)c(-c5ccc(F)c6sc(N)c(C#N)c56)c(Cl)cc34)C2)C1 [compound 213, 2-amino-4-(6-chloro-4-(2-(2,2-difluoropropanoyl)-2,6-diazaspiro[3.6]decan-6-yl)-8-fluoro-2-(((2R,7aS)-2-fluorotetrahydro-1H-pyrrolizin-7a(5H)-yl)methoxy)quinazolin-7-yl)-7-fluorobenzo[b]thiophene-3-carbonitrile]
